Experimental data from PubChem BioAssay AID1963983 (Molecular Pharmacology Branch, DTP, NCI, 2024).

Tested on: 186277-243-T-J2-PDC multi-cell spheroid viability
Experiment: Anticancer human tumor 186277-243-T-J2-PDC patient-derived colon adenocarcinoma cell line growth inhibition [PI3K]
Details: for IC50: curve of first compound; for viability, T/C: stronger effect = lower value
Method in brief: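 Complex 3D spheroids (cancer cells + endothelial HUVEC + mesenchymal stem cells); drug pairs of targeted agent x inavolisib/alpelisib/duvelisib/copanlisib; half-log series from ~Cmax, max 10 microM if Cmax unknown; endpoint viability.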
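Further: spheroids exposed to compounds for seven days before viability reading.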
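Wherever viability, T/C is given: 100% = DMSO vehicle control viability.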

In the case of `Cn1cnc2c(F)c(Nc3ccc(Br)cc3Cl)c(C(=O)NOCCO)cc21` + CC(Nc1ccc2c(c1)OCCn1cc(N3C(=O)OCC3C(F)F)nc1-2)C(N)=O, the IC50 (second compound 0.00316 µM) is reported as 115 nM, the IC50 (second compound 0.01 µM) is reported as 77.8 nM and the IC50 (second compound 0.0316 µM) is reported as 39.4 nM. For the same compound, the IC50 (second compound 0.1 µM) was 11.9 nM, the IC50 (second compound 0.316 µM) was less than 9.49 nM and the IC50 (second compound 1 µM) was less than 9.49 nM. For the same compound, the viability, T/C (second compound 0.00316 µM, first compound 0.00949 µM) was 97.2%, the viability, T/C (second compound 0.00316 µM, first compound 0.03 µM) was 83% and the viability, T/C (second compound 0.00316 µM, first compound 0.0949 µM) was 47.7%. The viability, T/C (second compound 0.00316 µM, first compound 0.3 µM) was 36.6%, the viability, T/C (second compound 0.00316 µM, first compound 0.949 µM) was 14.2% and the viability, T/C (second compound 0.00316 µM, first compound 3 µM) was 8.95%. For the same compound, the viability, T/C (second compound 0.01 µM, first compound 0.00949 µM) was 101%, the viability, T/C (second compound 0.01 µM, first compound 0.03 µM) was 79.8% and the viability, T/C (second compound 0.01 µM, first compound 0.0949 µM) was 40.4%. The viability, T/C (second compound 0.01 µM, first compound 0.3 µM) was 26.5%, the viability, T/C (second compound 0.01 µM, first compound 0.949 µM) was 15.9% and the viability, T/C (second compound 0.01 µM, first compound 3 µM) was 9.46%. The viability, T/C (second compound 0.0316 µM, first compound 0.00949 µM) was 94%, the viability, T/C (second compound 0.0316 µM, first compound 0.03 µM) was 54.5% and the viability, T/C (second compound 0.0316 µM, first compound 0.0949 µM) was 32.8%. It also gave a viability, T/C (second compound 0.0316 µM, first compound 0.3 µM) of 19.2%, a viability, T/C (second compound 0.0316 µM, first compound 0.949 µM) of 10.6% and a viability, T/C (second compound 0.0316 µM, first compound 3 µM) of 6.13%. It also gave a viability, T/C (second compound 0.1 µM, first compound 0.00949 µM) of 53.9%, a viability, T/C (second compound 0.1 µM, first compound 0.03 µM) of 33.8% and a viability, T/C (second compound 0.1 µM, first compound 0.0949 µM) of 22.4%. The viability, T/C (second compound 0.1 µM, first compound 0.3 µM) was 8.1%, the viability, T/C (second compound 0.1 µM, first compound 0.949 µM) was 7.55% and the viability, T/C (second compound 0.1 µM, first compound 3 µM) was 3.21%. For the same compound, the viability, T/C (second compound 0.316 µM, first compound 0.00949 µM) was 30.7%, the viability, T/C (second compound 0.316 µM, first compound 0.03 µM) was 16.4% and the viability, T/C (second compound 0.316 µM, first compound 0.0949 µM) was 9.95%. For the same compound, the viability, T/C (second compound 0.316 µM, first compound 0.3 µM) was 4.19%, the viability, T/C (second compound 0.316 µM, first compound 0.949 µM) was 4.43% and the viability, T/C (second compound 0.316 µM, first compound 3 µM) was 3.42%. For the same compound, the viability, T/C (second compound 1 µM, first compound 0.00949 µM) was 20.1%, the viability, T/C (second compound 1 µM, first compound 0.03 µM) was 10.1% and the viability, T/C (second compound 1 µM, first compound 0.0949 µM) was 4.65%. It also gave a viability, T/C (second compound 1 µM, first compound 0.3 µM) of 3.78%, a viability, T/C (second compound 1 µM, first compound 0.949 µM) of 3.32% and a viability, T/C (second compound 1 µM, first compound 3 µM) of 0.47%.

With `CC(Nc1ccc2c(c1)OCCn1cc(N3C(=O)OCC3C(F)F)nc1-2)C(N)=O` (centres undefined) the viability, T/C (compound 0.00316 µM) was 99.1% [middle of 8 runs], the viability, T/C (compound 0.01 µM) was 100% [middle of 8 runs] and the viability, T/C (compound 0.1 µM) was 98% [middle of 8 runs]. The viability, T/C (compound 0.316 µM) was 73.4% [middle of 8 runs] and the viability, T/C (compound 1 µM) was 50.1% [middle of 8 runs].

With `CC(C)n1nc(-c2ccc3oc(N)nc3c2)c2c(N)ncnc21` + CC(Nc1ncnc2nc[nH]c12)c1cc2cccc(Cl)c2c(=O)n1-c1ccccc1 the IC50 (second compound 0.0316 µM) was 63.4 nM, the IC50 (second compound 0.1 µM) was 59.2 nM and the IC50 (second compound 0.316 µM) was 61.7 nM. It also gave an IC50 (second compound 1 µM) of 56.1 nM, an IC50 (second compound 3.16 µM) of 47.8 nM and an IC50 (second compound 10 µM) of 47.2 nM. The viability, T/C (second compound 0.0316 µM, first compound 0.000316 µM) was 86.4%, the viability, T/C (second compound 0.0316 µM, first compound 0.001 µM) was 96% and the viability, T/C (second compound 0.0316 µM, first compound 0.00316 µM) was 108%. For the same compound, the viability, T/C (second compound 0.0316 µM, first compound 0.01 µM) was 90.2%, the viability, T/C (second compound 0.0316 µM, first compound 0.0316 µM) was 81.5% and the viability, T/C (second compound 0.0316 µM, first compound 0.1 µM) was 29.2%. It also gave a viability, T/C (second compound 0.1 µM, first compound 0.000316 µM) of 112%, a viability, T/C (second compound 0.1 µM, first compound 0.001 µM) of 101% and a viability, T/C (second compound 0.1 µM, first compound 0.00316 µM) of 96.7%. The viability, T/C (second compound 0.1 µM, first compound 0.01 µM) was 97.1%, the viability, T/C (second compound 0.1 µM, first compound 0.0316 µM) was 80.3% and the viability, T/C (second compound 0.1 µM, first compound 0.1 µM) was 25.3%. The viability, T/C (second compound 0.316 µM, first compound 0.000316 µM) was 105%, the viability, T/C (second compound 0.316 µM, first compound 0.001 µM) was 103% and the viability, T/C (second compound 0.316 µM, first compound 0.00316 µM) was 89.1%. The viability, T/C (second compound 0.316 µM, first compound 0.01 µM) was 103%, the viability, T/C (second compound 0.316 µM, first compound 0.0316 µM) was 79.6% and the viability, T/C (second compound 0.316 µM, first compound 0.1 µM) was 28.6%. For the same compound, the viability, T/C (second compound 1 µM, first compound 0.000316 µM) was 96.7%, the viability, T/C (second compound 1 µM, first compound 0.001 µM) was 108% and the viability, T/C (second compound 1 µM, first compound 0.00316 µM) was 102%. It also gave a viability, T/C (second compound 1 µM, first compound 0.01 µM) of 96.3%, a viability, T/C (second compound 1 µM, first compound 0.0316 µM) of 72.5% and a viability, T/C (second compound 1 µM, first compound 0.1 µM) of 27.4%. For the same compound, the viability, T/C (second compound 3.16 µM, first compound 0.000316 µM) was 95%, the viability, T/C (second compound 3.16 µM, first compound 0.001 µM) was 90.8% and the viability, T/C (second compound 3.16 µM, first compound 0.00316 µM) was 95.4%. The viability, T/C (second compound 3.16 µM, first compound 0.01 µM) was 92.2%, the viability, T/C (second compound 3.16 µM, first compound 0.0316 µM) was 64.9% and the viability, T/C (second compound 3.16 µM, first compound 0.1 µM) was 23.5%. For the same compound, the viability, T/C (second compound 10 µM, first compound 0.000316 µM) was 89.7%, the viability, T/C (second compound 10 µM, first compound 0.001 µM) was 94.5% and the viability, T/C (second compound 10 µM, first compound 0.00316 µM) was 78%. For the same compound, the viability, T/C (second compound 10 µM, first compound 0.01 µM) was 80.5%, the viability, T/C (second compound 10 µM, first compound 0.0316 µM) was 69.7% and the viability, T/C (second compound 10 µM, first compound 0.1 µM) was 17.6%.
